Test results as given in patent EP2914280B1, “SOMATOSTATIN-DOPAMINE CHIMERIC ANALOGS” (IPSEN PHARMA S.A.S., priority 2012, dated 2014).
Where two headings read alike, the source gives them in different places.

What was measured:
hSSTR1 = target: T1, hSSTR1 (Homo sapiens, UniProt P30872); assay: Somatostatin receptor radioligand binding assay (hSSTR1)
T1 construct: expressed in transfected cells; host or cells: CHO-K1 (ATCC), pcDNA3.1, G418-selected clonal line; membranes
Method: (§5) The affinities of a test compound for the human somatostatin receptors were determined by radioligand binding assays in CHO-K1 cells stably transfected with each of the human somatostatin receptor subtypes, hSSTR1-5. […] Clonal cell lines stably expressing each of the somatostatin receptors were obtained by transfection into CHO-K1 cells (ATCC) and subsequently selected with culture media containing 0.8 mg/mL of G418 (Life Technologies).
(§6) Membranes for in vitro receptor binding assays were obtained by the following procedures. […] The supernatant containing the plasma membranes was centrifuged at 100,000 x g for 30 minutes and the pellet was resuspended in buffer containing 20 mM glycine-glycine, 1 mM MgCl2, 250 mM sucrose, pH 7.2, for storage at -80°C.
(§7) For the SSTR1, 2 and 5 assays, membranes and various concentrations of test compounds were incubated in 96-well plates for 60 minutes at 25°C with 0.05 nM [^125I-Tyr^11]-SRIF-14 (for hSSTR1; PerkinElmer Life Science), 0.05 nM [^125I-Tyr]-seglitide (for hSSTR2; PerkinElmer Life Science) or 0.05 nM [^125I-Tyr]-[DPhe-cyclo(Cys-Tyr-DTrp-Lys-Val-Cys)-Thr-NH2] (for hSSTR5; PerkinElmer Life Science) in 50 mM HEPES, 0.2% BSA, 0.1 mM MgCl2, pH 7.5.

hDRD2 [1] = target: T2, hDRD2 (Homo sapiens, UniProt P14416); assay: biochemical; format: binding; parameters: expressed in transfected cells; host or cells: CHO-K1, pcDNA3.1/GS, zeocin-selected clonal line; membranes
hSSTR4 = target: T3, hSSTR4 (Homo sapiens, UniProt P31391); assay: Somatostatin receptor radioligand binding assay (hSSTR4); conditions: CHO-K1 cell membranes; 0.05 nM [125I-Tyr11]-SRIF-14; 60 minutes at 25°C; read-out: hSSTR4 Ki (nM) ± SEM
T3 construct: expressed in transfected cells; host or cells: CHO-K1 (ATCC), pcDNA3.1, G418-selected clonal line; membranes
Method: (§1) The affinities of a test compound for the human somatostatin receptors were determined by radioligand binding assays in CHO-K1 cells stably transfected with each of the human somatostatin receptor subtypes, hSSTR1-5. The cDNA coding sequences of hSSTR1 (GenBank accession No. NM_001049.1), hSSTR2 (GenBank accession No. XM_012697.1), hSSTR3 (GenBank accession No. XM_009963.1), hSSTR4 (GenBank accession No. NM_001052.1), and hSSTR5 (GenBank accession No. XM_012565.1) were subcloned into the mammalian expression vector pcDNA3.1 (Life Technologies). Clonal cell lines stably expressing each of the somatostatin receptors were obtained by transfection into CHO-K1 cells (ATCC) and subsequently selected with culture media containing 0.8 mg/mL of G418 (Life Technologies).
(§2) Membranes for in vitro receptor binding assays were obtained by the following procedures. CHO-K1 cells expressing one of the somatostatin receptors were homogenized in ice-cold buffer with 10 mM Tris-HCl, 5 mM EDTA, 3 mM EGTA, 1 mM phenylmethylsuphonyl fluoride, pH 7.6, using Polytron PT10-35GT (Kinematica) at 18,000 rpm for 30 seconds and centrifuged at 500 x g for 10 minutes. The supernatant containing the plasma membranes was centrifuged at 100,000 x g for 30 minutes and the pellet was resuspended in buffer containing 20 mM glycine-glycine, 1 mM MgCl2, 250 mM sucrose, pH 7.2, for storage at -80°C.
(§3) For the hSSTR3 and 4 assays, membranes and various concentrations of test compounds were incubated in 96-well plates for 60 minutes at 25°C with 0.05 nM [^125I-Tyr^11]-SRIF-14 (PerkinElmer Life Science) in 50 mM HEPES, 0.2% BSA, 5 mM MgCl2, 200 KIU/mL trasylol, 0.02 mg/mL bacitracin, and 0.02 mg/mL phenylmethylsuphonyl fluoride, pH 7.5.
(§4) The incubations were terminated by rapid filtration through GF/C glass microfiber filter plates (pre-wet with 0.3% polyethyleneimine and 0.1 % BSA) using a 96-well cell harvester (Brandel). Plates were washed six times with 1 mL/well aliquots of ice-cold buffer containing 50 mM Tris buffer, pH 7.7. Specific binding was defined as the total radioligand bound minus the bound in the presence of 1000 nM SRIF-14.

hSSTR3 = target: T4, hSSTR3 (Homo sapiens, UniProt P32745); assay: Somatostatin receptor radioligand binding assay (hSSTR3); conditions: CHO-K1 cell membranes; 0.05 nM [125I-Tyr11]-SRIF-14; 60 minutes at 25°C; read-out: hSSTR3 Ki (nM) ± SEM
T4 construct: expressed in transfected cells; host or cells: CHO-K1 (ATCC), pcDNA3.1, G418-selected clonal line; membranes
Method: as §1, §2, §3, §4

hDRD2 [2] = target: T2, hDRD2; assay: cell-based; parameters: host or cells: 'Cells expressing hDRD2'; conditions: read-out: hDRD2 %Emax ± SEM
Method: (§8) The ability of select compounds according to the present invention to activate hSSTR2 and hDRD2 was determined by the intracellular calcium mobilization assay using FLIPR Calcium 4 assay kit (Molecular Devices).
(§9) Cells expressing hSSTR2 or hDRD2 were plated in 384-well microplates in tissue culture media and incubated for 16-24 hours at 37°C in a humidified atmosphere with 5% CO2. Medium was replaced by loading buffer containing Hank's buffered saline, 20 mM HEPES, 2.5 mM probenecid and Calcium 4 dye, and the plates were incubated at 37°C for 60 minutes.

hSSTR5 = target: T5, hSSTR5 (Homo sapiens, UniProt P35346); assay: Somatostatin receptor radioligand binding assay (hSSTR5); conditions: CHO-K1 cell membranes; 0.05 nM [125I-Tyr]-[DPhe-cyclo(Cys-Tyr-DTrp-Lys-Val-Cys)-Thr-NH2]; 60 minutes at 25°C; read-out: hSSTR5 Ki (nM) ± SEM
T5 construct: expressed in transfected cells; host or cells: CHO-K1 (ATCC), pcDNA3.1, G418-selected clonal line; membranes
Method: as §5, §6, §7

hSSTR2 [3] = target: T6, hSSTR2 (Homo sapiens, UniProt P30874); assay: Somatostatin receptor radioligand binding assay (hSSTR2);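 further: radioligand displacement on membranes of CHO-K1 cells stably transfected with human SSTR2, specific binding taken as total minus binding left with 1000 nM SRIF-14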
T6 construct: host or cells: 'Cells expressing hSSTR2'
Method: as §5, §6, §7

hSSTR2 [4] = target: T6, hSSTR2; assay: Intracellular calcium mobilization assay (FLIPR Calcium 4), hSSTR2; format: cell-based; conditions: receptor not named;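 further: agonist activity measured in cells expressing hSSTR2, seeded in 384-well plates, loaded with Calcium 4 dye, read-out as rise in intracellular calcium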
Method: as §8, §9

[5] = test system: pituitary tumor cells of acromegalic patients presenting with macroadenoma; assay: Human pituitary adenoma cell growth hormone release assay; format: cell-based; conditions: incubated for 18 hours; Growth hormone levels in the medium by AlphaLISA; Figure 5
Method: • Figure 1 is a graph showing the Growth hormone suppressing activity of Compound 4 (see Table I hereinbelow for its chemical name and its corresponding structural representation) on pituitary tumor cells of acromegalic patients presenting with macroadenoma. Various concentrations of Compound 4 were added to the medium and the cells were incubated for 18 hours before measurement of Growth hormone levels in the medium using the AlphaLISA Growth Hormone Immunoassay Research kit (PerkinElmer). • Figure 2 is a graph showing the Growth hormone suppressing activity of Compounds 5 , 6, and 7 (see Table I hereinbelow for their chemical name and their corresponding structural representation) on pituitary tumor cells of acromegalic patients presenting with macroadenoma. Various concentrations of Compounds 5, 6, and 7 were added to the medium and the cells were incubated for 18 hours before measurement of Growth hormone levels in the medium using the AlphaLISA Growth Hormone Immunoassay Research kit (PerkinElmer). • Figure 3 is a graph showing the Growth hormone suppressing activity of Compounds 4, 6, 7, 8, and 9 (see Table I hereinbelow for their chemical name and their corresponding structural representation) on pituitary tumor cells of acromegalic patients presenting with macroadenoma. […]

[6] = CHO-K1 cell membranes, 0.05 nM [125I-Tyr11]-SRIF-14, 60 minutes at 25°C, read-out: hSSTR1 Ki (nM) ± SEM
[7] = CHO-K1 cell membranes, […] [3H]-spiperone, 60 minutes at 25°C, read-out: hDRD2 Ki (nM) ± SEM
[8] = CHO-K1 cell membranes, 0.05 nM [125I-Tyr]-seglitide, 60 minutes at 25°C, read-out: hSSTR2 Ki (nM) ± SEM
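Wherever Emax is given: agonist activity at human DRD2 in DRD2-expressing cells, read as intracellular calcium mobilization with a FLIPR Calcium 4 fluorescent dye.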

T3 sequence (P31391 whole entry): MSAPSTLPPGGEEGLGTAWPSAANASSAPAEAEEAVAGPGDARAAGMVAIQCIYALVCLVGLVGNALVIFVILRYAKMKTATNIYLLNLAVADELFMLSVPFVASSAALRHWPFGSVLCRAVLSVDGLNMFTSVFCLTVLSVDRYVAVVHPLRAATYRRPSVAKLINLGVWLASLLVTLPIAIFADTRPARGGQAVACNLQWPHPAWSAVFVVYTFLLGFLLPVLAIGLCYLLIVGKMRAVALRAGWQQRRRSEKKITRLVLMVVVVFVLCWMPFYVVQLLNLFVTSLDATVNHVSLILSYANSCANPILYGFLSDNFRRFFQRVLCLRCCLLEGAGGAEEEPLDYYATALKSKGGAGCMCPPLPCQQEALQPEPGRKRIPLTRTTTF
T1 sequence (P30872 whole entry): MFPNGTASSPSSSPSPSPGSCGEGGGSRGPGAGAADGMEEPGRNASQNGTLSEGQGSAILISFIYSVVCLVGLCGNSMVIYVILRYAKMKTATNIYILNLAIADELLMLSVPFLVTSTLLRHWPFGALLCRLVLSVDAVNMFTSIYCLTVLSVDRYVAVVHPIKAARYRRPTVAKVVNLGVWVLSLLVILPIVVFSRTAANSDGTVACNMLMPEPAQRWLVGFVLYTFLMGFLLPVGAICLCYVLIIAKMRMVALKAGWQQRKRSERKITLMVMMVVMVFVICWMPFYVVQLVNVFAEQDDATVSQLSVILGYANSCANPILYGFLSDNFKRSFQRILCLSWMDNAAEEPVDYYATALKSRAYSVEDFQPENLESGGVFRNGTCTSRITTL
T6 sequence (P30874 whole entry): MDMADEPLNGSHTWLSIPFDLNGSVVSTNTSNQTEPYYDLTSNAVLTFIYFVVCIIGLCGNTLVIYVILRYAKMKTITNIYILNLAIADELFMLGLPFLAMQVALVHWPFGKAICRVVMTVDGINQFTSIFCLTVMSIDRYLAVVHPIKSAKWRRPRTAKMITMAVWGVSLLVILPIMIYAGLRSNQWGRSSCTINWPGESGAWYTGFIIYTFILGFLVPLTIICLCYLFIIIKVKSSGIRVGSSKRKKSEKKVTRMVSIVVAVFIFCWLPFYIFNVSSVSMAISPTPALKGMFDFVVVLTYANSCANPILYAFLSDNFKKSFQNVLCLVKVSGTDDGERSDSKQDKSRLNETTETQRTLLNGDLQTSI
T4 sequence (P32745 whole entry): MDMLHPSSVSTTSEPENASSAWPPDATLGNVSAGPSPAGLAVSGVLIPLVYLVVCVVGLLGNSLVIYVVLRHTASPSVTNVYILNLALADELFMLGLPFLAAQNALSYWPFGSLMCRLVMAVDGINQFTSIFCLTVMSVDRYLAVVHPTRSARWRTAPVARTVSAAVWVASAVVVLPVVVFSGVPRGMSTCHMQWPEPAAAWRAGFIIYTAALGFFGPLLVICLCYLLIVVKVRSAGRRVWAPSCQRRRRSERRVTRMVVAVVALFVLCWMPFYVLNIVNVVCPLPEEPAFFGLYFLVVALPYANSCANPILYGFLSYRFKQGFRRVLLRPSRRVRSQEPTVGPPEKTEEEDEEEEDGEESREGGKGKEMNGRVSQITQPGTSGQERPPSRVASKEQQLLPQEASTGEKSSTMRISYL
T2 sequence (P14416 whole entry): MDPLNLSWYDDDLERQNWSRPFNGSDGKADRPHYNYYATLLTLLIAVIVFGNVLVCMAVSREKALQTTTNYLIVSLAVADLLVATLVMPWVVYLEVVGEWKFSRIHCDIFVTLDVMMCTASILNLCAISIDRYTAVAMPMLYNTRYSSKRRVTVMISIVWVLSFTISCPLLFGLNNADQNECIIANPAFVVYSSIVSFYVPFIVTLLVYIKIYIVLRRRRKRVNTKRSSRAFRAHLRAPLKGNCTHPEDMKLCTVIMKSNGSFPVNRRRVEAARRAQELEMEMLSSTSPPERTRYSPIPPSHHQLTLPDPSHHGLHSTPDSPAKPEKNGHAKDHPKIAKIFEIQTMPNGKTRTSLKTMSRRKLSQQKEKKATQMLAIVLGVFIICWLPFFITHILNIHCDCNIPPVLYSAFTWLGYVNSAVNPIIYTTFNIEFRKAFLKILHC
T5 sequence (P35346 whole entry): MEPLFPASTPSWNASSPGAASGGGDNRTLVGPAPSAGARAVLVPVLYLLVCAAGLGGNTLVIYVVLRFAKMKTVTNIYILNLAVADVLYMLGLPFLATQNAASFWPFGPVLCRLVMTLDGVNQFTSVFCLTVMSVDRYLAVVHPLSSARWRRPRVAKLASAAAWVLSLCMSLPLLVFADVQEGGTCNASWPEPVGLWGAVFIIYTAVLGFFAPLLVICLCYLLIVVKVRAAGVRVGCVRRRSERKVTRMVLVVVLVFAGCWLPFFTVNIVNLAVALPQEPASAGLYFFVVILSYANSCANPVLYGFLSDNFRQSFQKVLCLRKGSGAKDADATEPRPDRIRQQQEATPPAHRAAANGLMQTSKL

Structure (SMILES): CC(=O)N(CCC(=O)NC(CN[C@@H]1CCCCNC(=O)[C@H](Cc2ccc(F)cc2)NC(=O)[C@H]([C@@H](C)O)NC(=O)[C@H](CCCCN)NC(=O)[C@@H](Cc2c[nH]c3ccccc23)NC(=O)[C@H](Cc2ccccc2)NC(=O)[C@H](Cc2ccccc2)NC(=O)[C@H](CCCNC(=N)N)NC1=O)Cc1ccc(O)cc1)C[C@@H]1C[C@@H]2c3cccc4[nH]cc(c34)C[C@H]2N(C)C1 (single isomer, unassigned) [Compound 27, 3-[N-acetyl-N-(D-6-methyl-8β-ergolinylmethyl)]-aminopropionyl-Tyr-psi(CH2NH)-cyclo(DLys-Arg-Phe-Phe-DTrp-Lys-Thr-4FPhe)]
- Ki (hSSTR1): 24.4 ± 12 nM
- Ki (hDRD2 [1]): 277 ± 55.5 nM
- Ki (hSSTR4): 7.3 ± 1.3 nM
- Ki (hSSTR3): 0.9 ± 0.1 nM
- Emax (hDRD2 [2]): 86.3 ± 8%
- Ki (hSSTR5): 0.53 ± 0.1 nM
- Ki (hSSTR2 [3]): 0.32 ± 0.04 nM

Structure (SMILES): C[C@@H](O)[C@@H]1NC(=O)[C@H](CCCCN)NC(=O)[C@@H](Cc2c[nH]c3ccccc23)NC(=O)[C@H](Cc2ccncc2)NC(=O)[C@H](Cc2ccccc2)NC(=O)[C@H](CCCNC(=N)N)NC(=O)[C@H](NC[C@H](CCCCNC(=O)CSC[C@@H]2C[C@@H]3c4cccc5[nH]cc(c45)C[C@H]3N(C)C2)NC(=O)CSC[C@@H]2C[C@@H]3c4cccc5[nH]cc(c45)C[C@H]3N(C)C2)CCCCNC(=O)[C@H](Cc2ccccc2)NC1=O [Compound 9, Dop1-Lys(Dop1)-psi(CH2NH)-cyclo(DLys-Arg-Phe-4Pal-DTrp-Lys-Thr-Phe)]
- Ki (hSSTR1; [6]): 41.9 ± 21.1 nM
- improvement in %Emax over Reference Compound C (hSSTR2 [4]): statistically significant improvement in %Emax
- Ki (hDRD2 [1]; [7]): 39.2 ± 8.3 nM
- Ki (hSSTR4): 24 ± 3.6 nM
- Ki (hSSTR3): 4 ± 0.5 nM
- Emax (hDRD2 [2]): 92.8 ± 3.8%
- Ki (hSSTR5): 1.54 ± 0.3 nM
- Ki (hSSTR2 [3]; [8]): 0.13 ± 0.06 nM

Structure (SMILES): C[C@@H](O)[C@@H]1NC(=O)[C@H](CCCCN)NC(=O)[C@@H](Cc2c[nH]c3ccccc23)NC(=O)[C@H](Cc2ccccc2)NC(=O)[C@H](Cc2ccccc2)NC(=O)[C@H](CCCNC(=N)N)NC(=O)[C@H](NC[C@H](Cc2ccc(O)cc2)NC(=O)CSC[C@@H]2C[C@@H]3c4cccc5[nH]cc(c45)C[C@H]3N(C)C2)CCCCNC(=O)[C@H](Cc2ccc(F)cc2)NC1=O [Compound 5, Dop1-Tyr-psi(CH2NH)-cyclo(DLys-Arg-Phe-Phe-DTrp-Lys-Thr-4FPhe)]
- Ki (hSSTR1; [6]): 9 ± 0.3 nM
- improvement in EC50 and/or %Emax over Reference Compound B (hSSTR2 [4]): statistically significant improvement in EC50 and/or %Emax
- Ki (hDRD2 [1]; [7]): 28.5 ± 12.8 nM
- Ki (hSSTR4): 25.2 ± 9 nM
- Ki (hSSTR3): 1.5 ± 0.3 nM
- Emax (hDRD2 [2]): 98.7 ± 2.3%
- Growth hormone suppressing activity compared to the parent somatostatin analogs [5]: enhanced Growth hormone suppressing activity
- Ki (hSSTR5): 1.65 ± 0.8 nM
- Ki (hSSTR2 [3]; [8]): 0.34 ± 0.09 nM

Structure (SMILES): C[C@@H](O)[C@@H]1NC(=O)[C@H](CCCCN)NC(=O)[C@@H](Cc2c[nH]c3ccccc23)NC(=O)[C@H](Cc2ccncc2)NC(=O)[C@H](Cc2ccccc2)NC(=O)[C@H](CCCNC(=N)N)NC(=O)[C@H](NC[C@H](CCCCNC(=O)CSC[C@@H]2C[C@@H]3c4cccc5[nH]cc(c45)C[C@H]3N(C)C2)NC(=O)CSC[C@@H]2C[C@@H]3c4cccc5[nH]cc(c45)C[C@H]3N(C)C2)CCCCNC(=O)[C@H](Cc2ccc(O)cc2)NC1=O [Compound 8, Dop1-Lys(Dop1)-psi(CH2NH)-cyclo(DLys-Arg-Phe-4Pal-DTrp-Lys-Thr-Tyr)]
- Ki (hSSTR1; [6]): 106 ± 7.9 nM
- improvement in %Emax over Reference Compound C (hSSTR2 [4]): statistically significant improvement in %Emax
- Ki (hDRD2 [1]; [7]): 113 ± 35 nM
- Ki (hSSTR4): 60.7 ± 15.7 nM
- Ki (hSSTR3): 7.5 ± 0.3 nM
- Emax (hDRD2 [2]): 94.7 ± 0.8%
- Ki (hSSTR5): 1.49 ± 0.3 nM
- Ki (hSSTR2 [3]; [8]): 0.21 ± 0.08 nM

Structure (SMILES): C[C@@H](O)[C@@H]1NC(=O)[C@H](CCCCN)NC(=O)[C@@H](Cc2c[nH]c3ccccc23)NC(=O)[C@H](Cc2ccncc2)NC(=O)[C@H](Cc2ccccc2)NC(=O)[C@H](CCCNC(=N)N)NC(=O)[C@H](NC[C@H](Cc2ccc(O)cc2)NC(=O)CSC[C@@H]2C[C@@H]3c4cccc5[nH]cc(c45)C[C@H]3N(C)C2)CCCCNC(=O)[C@H](Cc2ccccc2)NC1=O [Compound 4, Dop1-Tyr-psi(CH2NH)-cyclo(DLys-Arg-Phe-4Pal-DTrp-Lys-Thr-Phe)]
- Ki (hSSTR1; [6]): 38.1 ± 12.5 nM
- improvement in EC50 and/or %Emax over Reference Compound B (hSSTR2 [4]): statistically significant improvement in EC50 and/or %Emax
- Ki (hDRD2 [1]; [7]): 182.5 ± 1.7 nM
- Ki (hSSTR4): 93.5 ± 47.7 nM
- Ki (hSSTR3): 10.6 ± 0.5 nM
- Emax (hDRD2 [2]): 106 ± 2.4%
- Growth hormone suppressing activity compared to the parent somatostatin analogs [5]: enhanced Growth hormone suppressing activity
- Ki (hSSTR5): 0.92 ± 0.1 nM
- Ki (hSSTR2 [3]; [8]): 0.12 ± 0.01 nM
